The structures appear in SMILES notation. Several values for one entry are separate records, joined by “and”; a condition that tells them apart may be missing. Identical values can stand only once. Peptide text beside a SMILES is read from it.

In one data set the test system is C57BL/6 mice. The data set can be described thus: Ear pinna injury, ear punch closure. The format is in vivo, mouse. The protocol: Experiments were performed on 8–12 week-old female BALB/c (24 mice in total) and C57BL/6 mice (36 mice in total). All mice originated from the Centre for Experimental Medicine of the Medical University of Białystok, Poland, and were kept in the animal facility at the Nencki Institute of Experimental Biology throughout the course of the study. After delivery to the Nencki Institute animal facility, mice rested for at least two weeks for acclimatization before starting the experiment. Experiments were approved by the First Local Ethics Committee in Warsaw (permit No. 491/2013 and 542/2018). Animal experimentation was performed in accordance with EU directive 2010/63/EU, and all experiments were undertaken in such a way as to minimize discomfort and the number of animals used in the study.
Mice were placed individually in separate cages, weighed, and randomly divided into two groups within each mouse strain: The treatment group and the control group. Before the study all mice were randomly given numerical equivalents, and all experimenters performing further analysis were not aware of the experimental group and referred solely to those numbers. Similarly, vials containing IM (treatment) or saline (control) were encrypted and assigned to particular mice, so the person performing injections and ear photographs was not aware of mice background. Lastly, the person quantifying each ear hole closure was not aware of the group. Numerical equivalents of each mice were only decrypted at the end of the study. […]
To monitor the progress of wound healing, ears were photographed on the day of the injury (day 0, before and right after pinna injury), and on days 7, 14, 21, 28, 35, and 42. […] Finally, the area of the wound hole was outlined by hand on digitized images as an overlay, and the hole areas in the ears were evaluated using computer-assisted image analysis (ImageJ Software). […] The final number of analyzed ears was 23 per group on day 42. […] The final number of analyzed ears on day 42 was 32 in the control group and 16 in the treatment group.

A short description of another data set: Stability in water. It is filed as physicochemical. The note with it: 1 mg/mL in sterile water, 37 °C, 24 h; HPLC Luna C18(2), PDA; 3 independent experiments, n=3 (Figure S1). The method, then: A stock of IM peptide in sterile water (1 mg/mL) was prepared and divided into 200 µL portions. The sample tubes were stored in an incubator at 37 °C and analysis was performed at various time points (0, 1, 2, 3, 6, and 24 h). The analyses were performed by HPLC using a Luna C18(2) (5 µm, 100 Å 4.6 by 250 mm) column (Phenomenex, Torrance, CA, USA) and monitored by a PDA detector. Then, 0.01% TFA in H2O (A) and 0.01% TFA in 80% ACN in water (B) were used as solvents. A linear gradient of 5–100% B over 60 min and a flow rate of 1 mL/min was applied.
For calculations, peak areas were compared to a calibration curve calculated by LC solution Software (Shimadzu, Kyoto, Japan).

Data set [1] deals with primary fibroblast cell cultures. Kind of data set: Transcript levels by qPCR. It is filed as cell-based, human. The note with it: 0.1 µg/mL, 48 h, 2^−ΔCt relative to Actb and Tbp (Figure 5). The protocol:
Cell stimulation was performed as previously described. Primary fibroblasts after the third passage and ASCs after the second passage were cultured in appropriate DMEM medium supplemented with 10% FBS for 24 h. Then, the medium was changed for DMEM with 5% FBS and 24-h incubation was performed. After another medium change for serum-free, cells were stimulated with IM peptide (0.1 µg/mL) for 48 h. Cell cultures deprived of FBS for 48 h were used as a control. After stimulation, the cells were trypsinized, collected, and centrifuged, and the pellet was kept frozen (−80 °C) for transcriptome analysis and transcript level analysis.
RNA was extracted using an RNeasy Mini kit (Qiagen, Cat. No. 74104, Hilden, Germany). RNA quality and concentrations were examined with a NanoDrop 2000 spectrophotometer. cDNA synthesis was performed in a reaction mixture containing 200 ng of RNA, 100 pmoles of oligo dT20, 4 µl of 5× reaction buffer (250 mM Tris-HCl, 375 mM KCl, 15 mM MgCl2, and 50 mM DTT), and 200 units of Maxima Reverse Transcriptase (ThermoScientific Bio. Cat. No. EP0742, Waltham, MA USA), at a final volume of 20 µl. PCR reactions were carried out on a LightCycler LC96 device (Roche, Basel, Switzerland), at a final volume of 10 µl containing 5 µl of FastStart Essential DNA Green Master (Roche, Cat. No. 06402712001, Basel, Switzerland), 1 µl of cDNA, and 0.25 µl each of forward and reverse primer (10 µM). The primer sequences are listed in Supplementary Table S4. The transcript levels were determined using the 2^−ΔCt method relative to Actb and Tbp.
(In general: Real-time PCR tracks product formation cycle by cycle.)

A further data set relates to patients. Set-up: method as in PMID 18475748. To be noted: subcutaneous injection in patients, response to diphtheria toxoid vaccination; cited from earlier work.

As for `CC(C)[C@H](NC(=O)[C@H](CCCCN)NC(=O)[C@H](CC(=O)O)NC(=O)[C@@H](N)CCCNC(=N)N)C(=O)N[C@@H](Cc1ccc(O)cc1)C(=O)N[C@@H](CCCNC(=N)N)C(=O)O` [IM, H-Arg-Asp-Lys-Val-Tyr-Arg-OH] (H-RDKVYR-OH), the “mean ear hole area” value in the data set with C57BL/6 mice (C57BL/6, day 42 post-injury, 2 mm punch, s.c. 5.0 µg/g, 10 injections, mean ± SD, saline control 3.10 ± 0.74) came out at 1.67 ± 0.45 mm^2. Besides, the ear hole closure in the data set with C57BL/6 mice (C57BL/6, day 42 post-injury, s.c. 5.0 µg/g, 10 injections, mean ± SD, saline control 8.0% ± 36.8%) is 43.6% ± 13.9% and 44%. Further, the “tissue repair in comparison to control” value in the data set with C57BL/6 mice (C57BL/6, ear pinna injury, as summarised in the abstract) stood at 36%. In addition, in the data set “Stability in water”, the “signal from the IM peptide after incubation in water” value is “no reduction of the signal”. Moreover, the “transcriptional response of POU5F1” value in data set [1] (fibroblasts from all three donors) was “very strong induction”. For the same compound, in data set [1] (primary fibroblasts), the “transcriptional response of TET1” value is “high activation” and the “transcriptional response of TET3” value is recorded as “high activation”. Further, the “levels of interleukin-6 (IL-6) and tumor necrosis factor (TNF)” value in the data set on patients is “decreasing levels”.

The values above are taken from article PMC7355430, “Imunofan—RDKVYR Peptide—Stimulates Skin Cell Proliferation and Promotes Tissue Repair” (Molecules, 2020).
